From patent US5563142A, “Diaromatic substituted compounds as anti-HIV-1 agents” (The Upjohn Company, priority 1994, dated 1996)
Counter-ions that a name gives are not always drawn.

Tests used:
[1] = system: HIV in primary human peripheral blood lymphocytes; assay: Primary PBL assay: inhibition of viral replication (p24 & RNA); type: cell-based; conditions: Human immunodeficiency virus 1, Lymphocyte, primary human lymphocytes infected with HIV, days three and four, read-out: PBL INHIBITION OF VIRAL REPLICATION (p24 & RNA) ED50
Description: ^3 The utility of the compounds of the invention is further
infection in primary peripheral blood lymphocytes (primary PBL assay). Th
primary PBL assay offers the following advantages:
(a) The assays are performed with primary human lymphocytes. Thereby,
undesired testing of transformed cell lines is avoided in which host cell
and virus may have undergone processes of mutual adaptation. Performance
of cell culture in serum containing media closely mimics the in vivo
situation. (b) The primary PBL assay distinguishes between true antiviral
effect which is due to the drug and cytostatic/cytotoxic reactions. (c)
Viral replication is precisely followed by kinetic measurement of viral
nucleic acids and proteins. (d) Nucleic acids (total HIVRNA intra and
extracellular) and protein (secreted p24) are measured in parallel which
permits one to differentiate between the compound's effect on virus
replication and on the expression of viral proteins. This leads to
additional information regarding the efficacy of the test compound. (e)
Tolerance of the cell culture against low amounts of organic solvents als
permits the investigation of hydrophobic substances. (f) The dose of the
drug causing half maximal suppression of virus replication is determined.
(g) The screening system is standardized and automated to a high degree.
The primary PBL assay uses the following procedure:
Effects of the compounds of the invention on cell proliferation are determined by lymphocyte proliferation assays. Starting with a 100 micromolar solution, the compound is serially diluted 10 fold. One tenth of the concentration of a compound causing half maximal inhibition of cellular proliferation is employed for all subsequent testing.
Peripheral human lymphocytes are isolated by density gradient centrifugation. After stimulation by mitogen the cells are infected with a standardized preparation of HIV. Subsequently, the infected cells are cultured in the presence of the drug for four days. Individual cultures are established to measure viral replication three and four days following infection. Untreated cells and AZT-treated cells are included as controls in parallel with the drugs under investigation.
The amount of viral core protein p24 synthesized and release by the infected cells is determined in the supernatant by the capture-ELISA technique on days three and four. By comparing with a standard preparation, the amount of protein produced by the virus infected cells is quantified.
The total amount of viral RNA synthesized by the infected lymphocytes is determined by a special nucleic acid hybridization on days three and four of culture. By including a standard preparation of HIV-RNA the amount of synthesized RNA is quantified.
In addition, viability of HIV-infected cells is determined in parallel with assays for viral p24 and RNA. In order to evaluate the half maximal antiviral effect of the drug, a concentration dependency of the drug action is measured.
Numerous examples of the compounds of the invention are assayed according to this procedure. The anti-HIV activity, as measured by the inhibition of the release of core p24 protein in HIV infected human lymphocytes, is used to calculate ED50 -antiviral (the concentration required to give a 50% reduction in p24 synthesis).

[2] = system: HIV-1 (MT-2 cells infected with HIV-1); assay: Inhibition of HIV-induced syncytia formation in MT-2 cells; type: cell-based; conditions: for IC50: Human immunodeficiency virus 1, MT2, MT-2 cells infected with HIV-1, read-out: INHIBITION OF SYNCYTIA FORMATION ED50
Text: This test is described in Quantitative Infectivity Assay for HIV-1 and -2., Nature 332: 469-470, 1988 as well as in AIDS RESEARCH AND HUMAN RETROVIRUSES, Vol. 4, No. 6, pages 449-455 (1988), Mary Ann Liebent, Inc., Publishers; in an article entitled "Nucleotide Dimers Suppress HIV Expression In VITRO". The results (IC50 means the concentration, in μM of drug, required to inhibit syncytia formation to the extent of 50%) of various assay(s) are combined and reported as % inhibition and IC50 (calculated).
ability of various compounds used to inhibit HIVinduced syncytia formatio
in a tissue culture assay using MT2 cells infected with HIV1. This test i
described by Nara et al., Quantitative infectivity assay for HIV1 and 2,
Nature 332, 469-470 (1988), as well as in AIDS RESEARCH AND HUMAN
RETROVIRUSES, vol. 4, No. 6, pages 449-455 (1988), Mary Ann Liebent, Inc.
Publishers, and in an article by Mariano Busso, et al., entitled
"Nucleotide Dimers Suppress HIV Expression In Vitro". The results
(ED50 means the concentration, in μM of drug, required to inhibit
syncytia formation to the extent of 50%) of various assay are combined an
reported in Table I. In comparison, the known commercial compound, AZT,
percent reductions in syncytia formation at concentrations of
approximately 1 μM and 0.5 μM, respectively.

[3] = target: T1, viral reverse transcriptase (Human immunodeficiency virus type 1 group M subtype B, UniProt P04585); assay: Viral reverse transcriptase inhibition, cell free assay; type: biochemical, human immunodeficiency virus (HIV-1); conditions: read-out: RT % INHIBITION (100 μM), 100 μM; poly rC or poly rG template
T1 construct: Viral reverse transcriptase is found in extracts from bacterial clones; made in house; host or cells: Escherichia coli (extracts of bacterial clones, by the procedure of Larder et al., EMBO J. 6:3133-3137, 1987)
Outline: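 E. coli-expressed HIV-1 RT extract was incubated with inhibitor, 10 μM [35S]-dNTP, poly rC/rG template and oligo dG/dT primer in Tris pH 8.3 with Mg2+ at 37 °C (30 min; 15 min in an alternative version). DNA incorporation was counted on filters and reported as % inhibition (at 100 μM in one version) and IC50.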

| SMILES | EC50 [1] [nM] | IC50 [2] [nM] | inhibition at 100 µM [3] [%] | EC50 ([2]; Human immunodeficiency virus 1, MT2, read-out: concentration giving 50 percent reduction in syncytia formation) [nM] | IC100 ([2]; Human immunodeficiency virus 1, MT2, read-out: concentration giving 100 percent reduction in syncytia formation) [µM] |
| --- | --- | --- | --- | --- | --- |
| CCNc1cccnc1N1CCCN(C(=O)c2cc3cc(F)ccc3[nH]2)CC1 [Example 82, 1-(5-Fluoroindolyl-2-carbonyl)-4-(3-ethylamino-2-pyridinyl)-1,4-diazepine] | 10 to 100 | 10000 | 87 to 93 | – | – |
| CCNc1cccnc1N1CCN(C(=O)c2cc(C)c(OC)c(C)c2)CC1 [Example 1, 1-[4-Methoxy-3,5-dimethylbenzoyl]-4-[3-(ethylamino)-2-pyridinyl]piperazine] | 1000 | 10000 | 60 to 79 | – | – |
| CCNc1cccnc1N1CCN(C(=O)c2cc3cc(OC)ccc3[nH]2)CC1 [Example 16A, 1-[5-Methoxyindolyl-2-carbonyl]-4-[3-(ethylamino)-2-pyridinyl]-piperazine, hydrochloride] | 1 | < 200 | – | – | – |
| CCOc1ccccc1N1CCN(C(=O)c2cc3ccccc3[nH]2)CC1 [Example 10, 1-[Indolyl-2-carbonyl]-4-[2-ethoxyphenyl]piperazine] | > 1000 | 5000 | 72 to 87 | – | – |
| CCNc1cccnc1N1CCN(C(=O)c2cc3cc(OC)c(OC)cc3[nH]2)CC1 [Example 133] | 10 | 1000 | 76 to 84 | – | – |
| CCNc1cccnc1N1CCCN(C(=O)c2cc3ccccc3[nH]2)CC1 [Example 81, 1-[Indolyl-2-carbonyl]-4-(3-ethylamino-2-pyridinyl)-1,4-diazepine] | < 1 | 900 | 90 to 98 | – | – |
| CC(C)(C)Nc1cccnc1N1CCN(C(=O)c2cc3ccccc3[nH]2)CC1 [Example 44, 1-[Indolyl-2-carbonyl]-4-[3-(1,1-dimethylethylamino)-2-pyridinyl]piperazine] | 1 to 10 | 100 | 89 | – | – |
| CCNc1cccnc1N1CCN(Cc2cc3ccccc3[nH]2)CC1 [Example 20, 1-[Indolyl-2-methyl]-4-[3-(ethylamino)-2-pyridinyl]piperazine] | 1000 | 10000 | 64 | – | – |
| CCN(CC)c1cccnc1N1CCN(C(=O)c2cc3ccccc3[nH]2)CC1 [Example 19, 1-[Indolyl-2-carbonyl]-4-[3-(N,N-diethylamino)-2-pyridinyl]-piperazine] | 100 to 1000 | 3000 | 65 to 71 | – | – |
| Cc1cn([C@H]2C[C@H](N=[N+]=[N-])[C@@H](CO)O2)c(=O)[nH]c1=O [AZT, 3'-azido-3'-deoxy-thymidine, reference compound] | – | – | – | ~500 | ~1 |
| CCNc1cccnc1N1CCN(C(=O)c2cc3ccccc3[nH]2)CC1 [Example 11, 1-[Indolyl-2-carbonyl]-4-[3-(ethylamino)-2-pyridinyl]piperazine] | 10 to 100 | 300 to 3000 | 95 to 98 | – | – |
| CCCNc1cccnc1N1CCN(C(=O)c2cc3cc(F)ccc3[nH]2)CC1 [Example 21, 1-[5-Fluoroindolyl-2-carbonyl]-4-[3-(propylamino)-2-pyridinyl]piperazine] | 10 to 1000 | 1000 | 44 to 74 | – | – |
| CCNc1cccnc1N1CCN(C(=O)c2ccc[nH]2)CC1 [Example 70, 1-[Pyrrolyl-2-carbonyl]-4-(3-ethylamino-2-pyridinyl)piperazine] | ≥ 1000 | 2000 | 83 to 91 | – | – |
| CCNc1ccccc1N1CCN(C(=O)c2cc3ccccc3[nH]2)CC1 [Example 29, 1-[Indolyl-2-carbonyl]-4-[2-(ethylamino)phenyl]piperazine] | 100 to 1000 | 2800 | 75 to 83 | – | – |
| COc1ccc2[nH]c(C(=O)N3CCN(c4ncccc4NC(C)(C)C)CC3)cc2c1 [Example 45, 1-[5-Methoxyindolyl-2-carbonyl]-4-[3-(1,1-dimethylethylamino)-2-pyridinyl]piperazine hydrochloride salt] | 10 to 100 | 500 | 83 to 91 | – | – |
| CC(C)Nc1cccnc1N1CCCN(C(=O)c2cc3ccccc3[nH]2)CC1 [Example 83, 1-(Indolyl-2-carbonyl)-4-[3-(1-methylethylamino)-2-pyridinyl]-1,4-diazepine] | < 1 | < 300 | 97 to 98 | – | – |
| CCNc1cccnc1N1CCN(C(=O)c2cc3cc(Cl)ccc3[nH]2)CC1 [Example 22, 1-[5-Chloroindolyl-2-carbonyl]-4-[3-(ethylamino)-2-pyridinyl]piprazine] | 10 | 300 to 5000 | 76 to 82 | – | – |
| O=C(c1cc2ccccc2[nH]1)N1CCN(c2ncccc2NCC2CC2)CC1 [Example 31, 1-[Indolyl-2-carbonyl]-4-[3-(cyclopropylmethylamino)-2-pyridinyl]piperazine] | 100 to 1000 | 3000 | 65 to 71 | – | – |
| CCNc1cccnc1N1CCN(C(=O)c2cc3cc(O)ccc3[nH]2)CC1 [Example 37, 1-[5-Hydroxyindolyl-2-carbonyl]-4-[3-(ethylamino)-2-pyridinyl]piperazine] | 100 | 300 | 82 to 95 | – | – |
| CCNc1cccnc1N1CCN(C(=O)c2cc3cc(F)ccc3[nH]2)CC1 [Example 23, 1-[5-Fluoroindolyl-2-carbonyl]4-[3-(ethylamino)-2-pyridinyl]-piperazine] | 3 to 10 | < 300 | 92 to 95 | – | – |
| CC(C)Nc1cccnc1N1CCN(C(=O)c2cc3cc(NC(=O)CN)ccc3[nH]2)CC1 [Example 86, 1-[5-(2'-Aminoacetamido)indolyl-2-carbonyl]-4-(3-(1-methylethylamino)-2-pyridinyl)piperazine hydrochloride] | 1 to 10 | < 200 | 78 to 96 | – | – |
| CCCNc1cccnc1N1CCN(Cc2cc(C)c(OC)c(C)c2)CC1 [Example 5, 1-[4-Methoxy-3,5-dimethylbenzyl]-4-[3-(propylamino)-2-pyridinyl]-piperazine] | – | 2000 | 39 to 42 | – | – |
| COc1ccc2cc(C(=O)N3CCN(c4ncccc4NC(C)C)CC3)[nH]c2c1Br [Example 92, 1-[7-Bromo-6-methoxyindolyl-2-carbonyl]-4-[3-(1-methylethyl-amino)-2-pyridinyl]piperazine] | 100 to 1000 | – | 94 | – | – |
